In patent US10543231B2, “Methods and materials for treating cancer” (Mayo Foundation for Medical Education and Research, priority 2017, dated 2020):

Legend:
AsPC-1 cells = assay: In vitro cell viability assay (MTS); assay type: cell-based; conditions: AsPC-1, 1 hour treatment, MTS after 72 hours
Experimental: About 5×10^3 cells were seeded in 96-well plates and treated with increasing doses of GNP, Gem, and GNP-Gem diluted in respective media. After a 1-hour incubation, cells were washed thrice with PBS, overlaid with 100 μL media containing serum and antibiotics, and incubated for another 72 hours. At the end of the incubation, cell viability was measured using Celltiter 96 Aqueous One Solution Cell Proliferation Assay (Promega) as per the manufacturer's protocol. Briefly, the media containing the treatments were aspirated from the plate and washed with PBS. Then, 100 μL media containing 20 μL One Solution reagent was added to each well. The plate was incubated at 37° C. for 30 minutes, and absorbance at 492 nm was measured using Spectramax i3x. Percentage viability was calculated as follows: Viability (%)=100* (ATreated−ABlank)/(AUntreated−ABlank).
To this end, two commercially available pancreatic cancer cell lines were selected (AsPC-1 and PANC-1, obtained from ATCC). The cells were treated with increasing doses of GNP, Gem, and GNP-Gem for 1 hour. After 1 hour, cells were washed three times with PBS to remove the treatments completely in order to reduce any non-specific effect, and fresh media was added to the cells. The cell viability measurement was performed by MTS assay after 72 hours (FIG. 4A-B).

[1] = system: luciferase-transfected PANC-1 cells; assay: In vivo tumor growth inhibition, orthotopic PANC-1 xenograft; set-up: species or system NOD-SCID-Gamma (NSG) mice; conditions: after three weeks of treatment
Experimental: (§1) 6-8 weeks old male and female NOD-SCID-Gamma (NSG) mice were obtained from NCI and housed in the institutional animal facilities. About 1×10^6 luciferase-transfected PANC-1 cells suspended in 50 μL PBS were injected orthotopically into the pancreas of the mice. Tumors were allowed to grow for three weeks. Then, mice were randomized into four groups of ten (5 male mice and 5 female mice in each group), and 50 μg/mouse Gem, GNP-Gem with an equivalent Gem amount, or unconjugated GNPs were injected intraperitoneally three times a week for three weeks. Tumor growth was measured weekly using an IVIS bio-imager after injecting Luciferin. After three weeks of treatment, mice were sacrificed, and tumors were harvested, measured with slide calipers, and weighed. Tumor volumes were calculated using the formula: V=0.5 X a X b^2, where ‘a’ is the longest tumor axis, and ‘b’ is the shortest tumor axis.
About, 1×10^6 luciferase transfected PANC-1 cells were orthotopically implanted in the pancreas of 6-8 weeks old NSG mice. After three weeks, mice were imaged noninvasively using the Xenogen instrument to confirm tumor growth and then randomized into four groups before the initiation of treatment. Both male and female mice were included in the experiment to delineate any differential sex-dependent therapeutic effect of GNP-Gem. The experiment was terminated after three weeks of treatment. […] FIG. 5C depicts the tumor growth curve as measured by luciferase bioluminescence for female and male mice separately or in combination.

[2] = system: luciferase-transfected PANC-1 cells; assay: Histological study of harvested tumors (H&E, Ki67); assay type: in vivo, NOD-SCID-Gamma (NSG) mice
Experimental: as §1
Tumors were harvested and fixed in neutral buffered 10% formalin at room temperature for 24 hours prior to embedding in paraffin and sectioning. Sections were deparaffinized and then subjected Hematoxylin and Eosin (H&E) and Ki67 staining according to manufacturer's instructions (DAB 150, Millipore). Stable diaminobenzidine was used as a chromogen substrate, and the sections were counterstained with a hematoxylin solution. Slides were digitized with Aperio AT2 slide scanner (Leica) and analyzed with imagescope software (Leica).

Nc1ccn([C@@H]2O[C@H](CO)[C@@H](O)C2(F)F)c(=O)n1 [Gem, Gemcitabine]
effect on cell viability (AsPC-1 cells): dose dependent effect
tumor volume, mean ([1]; female and male combined): 251 mm^3
tumor volume, median ([1]; female and male combined): 250 mm^3
tumor weight, mean ([1]; female and male combined): 310.86 mg
tumor weight, median ([1]; female and male combined): 280.35 mg
tumor volume, mean ([1]; female mice): 254.8 mm^3
tumor volume, median ([1]; female mice): 254.6 mm^3
tumor weight, mean ([1]; female mice): 295.9 mg
tumor weight, median ([1]; female mice): 272.4 mg
tumor volume, mean ([1]; male mice): 247.17 mm^3
tumor volume, median ([1]; male mice): 245.3 mm^3
tumor weight, mean ([1]; male mice): 325.8 mg
tumor weight, median ([1]; male mice): 288.3 mg
percentage of Ki67-positive nuclei, mean ([2]; female and male combined): 31.4%
percentage of Ki67-positive nuclei, median ([2]; female and male combined): 32.07%
percentage of Ki67-positive nuclei, mean ([2]; female mice): 31.3%
percentage of Ki67-positive nuclei, median ([2]; female mice): 32.3%
percentage of Ki67-positive nuclei, mean ([2]; male mice): 31.5%
percentage of Ki67-positive nuclei, median ([2]; male mice): 31.4%
